Measurements published in patent US20260216057A1, “PHARMACEUTICAL COMPOSITIONS FOR HERPES VIRUS” (priority 2022, published 2026).

How the values were obtained:
[1] = Example 11: Compound 1 (Form A) aqueous suspension SC PK study in monkey; assay type: in vivo, male cynomolgus monkeys; details: 10 mg/kg, following an initial drug burst
Method: An aqueous suspension of Compound 1 free form (Form A) in a 0.9% NaCl+0.5% polysorbate 80 vehicle at a concentration of 3.0 mg/mL was prepared as follows: • 1) Vehicle (0.9% w/w NaCl and 0.5% w/w polysorbate 80) was prepared by dissolving NaCl and polysorbate 80 in water. • 2) Appropriate amount of Compound 1 was weighed and added to the vehicle. • 3) The mixture was stirred for 15 minutes, then vortexed for 1 minute and then sonicated for 10 minutes. • 4) The final dosing formulation was a homogenous white cloudy suspension.
(§1) Male non-naïve Cyno Monkeys with ~4-6 kg body weight were used for the monkey PK study. The animals had free access to food and water. The prepared suspension was administered via subcutaneous injection to each animal group (n=3) with a dosing volume of 3.33 mL/kg to achieve a 10 mg/kg dose.
At each time point, approximately 0.5 mL whole blood was collected via the cephalic and saphenous vein into K2EDTA tubes. Blood samples were put on to ice and centrifuged at 2000 g for 5 min to obtain plasma sample within 15 minutes. Plasma samples were stored at approximately −70° C. until analyzed by LC-MS.

[2] = test system: carbonic anhydrase I and/or carbonic anhydrase II; assay: Carbonic anhydrase inhibition; assay type: biochemical
Source text: Carbonic anhydrase inhibition can be measured using a carbonic anhydrase I assay as described in Katritzky et al. (J. Med. Chem. 1987, 30:2058) and a carbonic anhydrase […] assay as described in lyer et al. (J. Biomol. Screen 2006, 11:782).

[3] = Injection site observation in Example 7 Compound 1 PK studies; assay type: in vivo, rat, monkey, dog; details: SC Compound 1 depot formulations, Example 7, 3 species
Method: The suspension was then dosed to male SD rats at 10 mg/kg according to the Example 2 animal dosing method. The suspension was then dosed to male cyno monkeys at 10 mg/kg according to the Example 3 animal dosing method. The suspension was then dosed to male non-naïve beagle dogs at 10 mg/kg according to the Example 4 animal dosing method.

[4] = Example 7: Compound 1 aqueous suspension SC PK study in dog; assay type: in vivo, male non-naïve Beagle dogs; details: aqueous suspension (Form A), 10 mg/kg
Method: The LC-MS methodology and conditions used to analyse the helicase-primase inhibitor Compound 1 in plasma samples from the sub-cutaneous injection PK studies (Examples 7 and 10-12) are described in Table 3 and Table 4. An aqueous suspension of crystalline Compound 1 (Form A) was prepared in a 0.9% NaCl+0.5% poloxamer 188 vehicle at a concentration of 5.0 mg/mL as described in Example 4. The suspension was then dosed to male non-naïve beagle dogs at 10 mg/kg according to the Example 4 animal dosing method.

[5] = Injection site observation in Example 10-12 Compound 1 PK studies; assay type: in vivo, rat, monkey, dog; details: SC Compound 1 depot formulations, Examples 10-12, 3 species
Method: (§2) The Compound 1 suspension described above was administered via sub-cutaneous injection to each animal group (n=3) with a dosing volume of 3.33 mL/kg to achieve a 10 mg/kg dose.
as §1
Male non-naïve beagles with ~10 kg body weight were used for the dog PK study. The animals had free access to food and water. The prepared suspension was administered via subcutaneous injection to each animal group (n=3) with a dosing volume of 2 mL/kg to achieve a 10 mg/kg dose.

[6] = Example 10: Compound 1 (Form A) aqueous suspension SC PK study in rat; assay type: in vivo, male Sprague Dawley rats; details: 10 mg/kg
Method: An aqueous suspension of Compound 1 free form (crystalline Form A) in a 0.9% NaCl+0.5% polysorbate 80 vehicle at a concentration of 3 mg/mL was prepared as follows: • 1) Vehicle (0.9% w/w NaCl and 0.5% w/w polysorbate 80) was prepared by dissolving NaCl and polysorbate 80 in water. • 2) An appropriate amount of Compound 1 free form was weighed and added to the vehicle. • 3) The mixture was vortexed for 1 minute, stirred for 10 minutes and then sonicated for 15 minutes. • 4) The final dosing formulation was a homogenous white cloudy suspension.
Male Sprague Dawley (SD) rats with ~230-250 g body weight (ages 6-8 weeks) were used for the pharmacokinetic study. The animals had free access to food and water.
as §2
At each time point, approximately 200 μL whole blood was collected in a K2EDTA tube via the jugular vein. Blood samples were put on ice and centrifuged at 2000 g for 5 min to obtain a plasma sample within 15 minutes. Plasma samples were stored at approximately −70° C. until analyzed by LC-MS.

[7] = Example 3: pritelivir aqueous suspension SC PK study in monkey; assay type: in vivo, male cynomolgus monkeys; details: aqueous suspension (dihydrate), 10 mg/kg
Method: The LC-MS methodology and conditions used to analyse pritelivir in plasma samples from the PK studies described in Examples 1 to 5 are provided in Table 1.
An aqueous suspension of crystalline pritelivir free base (dihydrate) in a 0.9% NaCl+0.5% polysorbate 80 vehicle at a concentration of 3.0 mg/mL was prepared as follows: • 1) Vehicle (0.9% w/w NaCl and 0.5% w/w polysorbate 80) was prepared by dissolving NaCl and polysorbate 80 in water. • 2) Appropriate amount of crystalline pritelivir free base (dihydrate) was weighed and added to the vehicle. • 3) Mixture was stirred for 15 minutes, then vortexed for 1 minute and then sonicated for 10 minutes. • 4) The final dosing formulation was a homogenous white cloudy suspension.
Male non-naïve Cyno Monkeys with −5 kg body weight was used for the monkey PK study. The animals had free access to food and water. The prepared suspension was administered via subcutaneous injection to each animal group (n=3) with a dosing volume of 3.33 mL/kg to achieve a 10 mg/kg dose.
At each time point, approximately 0.5 mL whole blood was collected via the cephalic vein into K2EDTA tubes. Blood samples were put on to ice and centrifuged at 2000 g for 5 min to obtain plasma sample within 15 minutes. Plasma samples were stored at approximately −70° C. until analyzed by LC-MS.

genital HSV = details: oral, 28 days, cited from earlier work
HSV-2 = details: Field et al. (2013); read-out: in-vitro EC50 against HSV-2; cited from earlier work
[8] = Wald et al. (2014); cited from earlier work

SMILES | prolonged exposure out to [1] | carbonic anhydrase inhibition [2] | adverse reactions at the injection sites [3] | prolonged exposure out to (length of the study) [4] | adverse reactions at the injection sites [5] | prolonged exposure out to [6] | variability in plasma concentrations [6] | prolonged exposure out to (length of the study) [7] | rate of genital HSV shedding (genital HSV; at high doses, vs placebo) | number of days with lesions (genital HSV; men and women with genital herpes) | EC50 (HSV-2) | human biological terminal half-life [8]
Cc1nc(N2CCCN(c3ccc(-c4cc(F)ccc4F)cc3)C2=O)sc1S(N)(=O)=O [Compound 1, 2-(3-(2′,5′-difluoro-[1,1′-biphenyl]-4-yl)-2-oxotetrahydropyrimidin-1(2H)-yl)-4-methylthiazole-5-sulfonamide] | at least 220 days | no or low levels of carbonic anhydrase inhibition | no adverse reactions observed | at least 1392 hours | no adverse reactions observed | at least 58 days | low |  |  |  |  | 
Cc1nc(N(C)C(=O)Cc2ccc(-c3ccccn3)cc2)sc1S(N)(=O)=O [pritelivir, N-methyl-N-(4-methyl-5-sulfamoyl-1,3-thiazol-2-yl)-2-[4-(pyridin-2-yl)phenyl]acetamide] |  |  |  |  |  |  |  | at least 456 hours | reduced the rate of genital HSV shedding | reduced the number of days with lesions | 29 nM | up to 80 hours
